# Values of other authors in US20150336981A1, “MODIFIED POLYPHENOLS AND MODIFIED POLYPHENOL COMPOSITIONS” (CELLAROUGE PTY LTD, priority 2012, published 2015).
# Tested on: high-carbohydrate, high fat diet-fed rats
# Conditions: HEA: high-carbohydrate, high fat diet + ellagic acid 0.8 g/kg food
compound,measurement,value
O=c1oc2c(O)c(O)cc3c(=O)oc4c(O)c(O)cc1c4c23 [ellagic acid],AUC,696 ± 11 mmol·min/L
same,Abdominal circumference,21.3 ± 0.3 cm
same,Abdominal fat pads,520 ± 29 mg/mm tibial length
same,BMI,0.72 ± 0.02 g/cm^2
same,Basal blood glucose,3.9 ± 0.2 mmol/L
same,Feed efficiency,0.31 ± 0.02 g/kJ
same,Final body weight,473 ± 2 g
same,Food intake,21.0 ± 0.4 g
same,Plasma C-reactive protein,2.40 ± 0.07 µmol/L
same,Plasma non-esterified fatty acids,1.7 ± 0.2 mmol/L
same,Plasma total cholesterol,1.5 ± 0.1 mmol/L
same,Plasma triglycerides,0.5 ± 0.1 mmol/L
same,Plasma urea,6.2 ± 0.4 mmol/L
same,Plasma uric acid,44.3 ± 3.8 µmol/L
same,Water intake,19.0 ± 0.4 mL
